# Data as given in patent US7776873B2, “Method for treating damage to gastric mucosa” (Yuhan Corporation, priority 2005, dated 2010).
# Columns and labels:
# [1] = tested on: human gastric epithelial (AGS) cells infected with H. pylori (ATCC 43504); experiment: Incidence of H. pylori-induced cell death (MTT assay-1); type: cell-based; conditions: FIG. 1
# Method: In order to determine cytoprotective properties of revaprazan against H. pylori infection, gastric mucosal cells were pretreated with revaprazan and rebamipide prior to H. pylori infection, and the incidence of cell death was measured. Rebamipide, known to have cytoprotective properties, was used as a control drug.
# The human gastric epithelial (AGS, KCLB 21739) cells were seeded onto 96-well plate at 5×10^4 cells/ml and cultured in RPMI 1640 (Gibco BRL, Grand Island, N.Y., U.S.A.), supplemented with 100 units/mL penicillin, 100 ug/mL streptomycin, and 10% FBS (Fetal Bovine Serum). Revaprazan and rebamipide, dissolved in sterilized water, were added to AGS cells to reach a final concentration of 50 uM and the cells were incubated at 37° C. for 16 hours. To remove RPMI 1640 media, the plate was centrifuged at 24° C., 3000 rpm for 5 minutes and washed three times with PBS (137 mM NaCl, 2.7 mM KCl, 10 mM Na2HPO4, and 2 mM KH2PO4). For inoculation, H. pylori (ATCC 43504) cultures were resuspended in PBS and cocultured with AGS cells at a final concentration of 5×10^8 CFU/ml. After 48 hours of incubation at 37° C., the culture was centrifuged at 24° C., 3000 rpm for 5 minutes to remove the culture medium, i.e., RPMI 1640, and then total viable cell numbers were assessed by MTT (3-[4,5-dimethylthiazol-2-yl]-2,5-diphenyl tetrazolim bromide) assay method. 1 mg/ml of an MTT solution prepared by dissolving MTT (Amresco, Ohio, U.S.A.) in PBS (137 mM NaCl, 2.7 mM KCl, 10 mM Na2HPO4, and 2 mM KH2PO4) was added to each well (50 μl/well), followed by incubation at 37° C. for 4 hours. The supernatant was then removed by centrifugation at 24° C., 3000 rpm for 5 minutes and the formazan grains formed by the viable cells were dissolved in 99.5% dimethyl sulfoxide (DMSO) (Kanto, Tokyo, Japan) (50 μl/well), and the optical intensity was measured at 540 nm using an ELISA reader (TECAN, Maennedorf, Switzerland).
# [2] = tested on: NF-kB (nuclear factor-kappa B); experiment: DNA binding activity of NF-kB after H. pylori infection (EMSA); type: cell-based, human; conditions: FIG. 5
# Method: The DNA binding activity of NF-kB (nuclear factor-kappa B), a redox-sensitive transcription factor known to be associated with H. pylori infection was evaluated using EMSA. Rebamipide (50 μM), known to have cytoprotective properties, was used as a control drug, and revaprazan (25 μM) was used as a test drug. The human gastric epithelial (AGS, KCLB 21739) cells were seeded in culture dishes at 2×10^6 cells/100 mm^2 and cultured in RPMI 1640 (Gibco BRL, Grand Island, N.Y., U.S.A.), supplemented with 100 units/mL penicillin, 100 ug/mL streptomycin, and 10% FBS (Fetal Bovine Serum). […] The culture media were removed and the cells were twice washed with PBS (137 mM NaCl, 2.7 mM KCl, 10 mM Na2HPO4, and 2 mM KH2PO4). For inoculation, H. pylori (ATCC 43504) cultures were resuspended in PBS and cocultured with AGS cells at a final concentration of 5×10^8 CFU/ml at 37° C. for one hour. The nuclear fractions for EMSA were prepared using the NE-PER Nuclear and the Cytoplasmic Extraction Kit (Pierce, Rockford, Ill., U.S.A.). Sequences of double-stranded oligonucleotides used for EMSA of NF-kB were as follows; [NT], and the oligonucleotides were labeled with a Biotin 3' End DNA Labeling Kit (Pierce, Rockford, Ill., U.S.A.). The EMSA was performed with a Light Shift Chemiluminescent EMSA Kit (Pierce, Rockford, Ill., U.S.A.).
# [3] = tested on: heat-shock proteins, HO-1, HSP27, HSP70; experiment: Expression of heat-shock proteins in indomethacin-treated cells (Western blotting); type: cell-based, rat; conditions: RGM-1 cells, 5, 10 and 25 uM for 16 hours, then indomethacin 0.5 uM 16 hours, FIG. 7
# Method: To measure expression of heat-shock proteins, HO-1, HSP27, HSP70, cells were pretreated with concentrations of 5, 10, and 25 μM revaprazan, and then treated with indomethacin (a NSAID, 0.5 μM).
# The rat gastric mucosal (RGM-1, RIKEN cell bank, Japan) cells were seeded in culture dishes at 2×10^6 cells/100 mm^2 and cultured in DMEM-F12 (Gibco BRL, Grand Island, N.Y., U.S.A.), supplemented with 100 units/mL penicillin, 100 ug/mL streptomycin, and 10% FBS (Fetal Bovine Serum). RGM-1 cells were pretreated with revaprazan (5, 10, and 25 uM) and cultured 37° C. for 16 hours. The culture media were removed and the cells were washed three times with PBS (137 mM NaCl, 2.7 mM KCl, 10 mM Na2HPO4, and 2 mM KH2PO4). A solution of indomethacin in sterilized water was added to the cells to reach a final concentration of 0.5 uM, and the cells were incubated at 37° C. for 16 hours. After incubation, the cells were resuspended in a lysis buffer (20 mM Tris-Cl (pH 7.5), 150 mM NaCl, 1% Triton X-100, 1 mM EDTA, and protease inhibitor cocktail (Roche, Mannheim, Germany)). The suspension was sonicated for approximately 10 seconds, four times using the BIORUPTOR (Cosmo Bio, Koto-ku, Tokyo), and centrifuged at 4° C., 12000 rpm for 30 minutes. […]
smiles,measurement,setting,value
"Cc1nc(Nc2ccc(F)cc2)nc(N2CCc3ccccc3C2C)c1C (centres unmarked) [revaprazan, 5,6-dimethyl-2-(4-fluorophenylamino)-4-(1-methyl-1,2,3,4-tetrahydroisoquinolin-2-yl)pyrimidine]",cytoprotective effect against H. pylori-induced cytotoxicity compared with rebamipide,[1]; 50 uM each,equal to or greater than rebamipide
same,gastric mucosal cytotoxicity by H. pylori infection,"[1]; 50 uM pretreatment for 16 hours, then 48-hour H. pylori infection",significantly reduced
same,NF-kB activity (DNA binding),"[2]; AGS cells, 25 uM pretreatment for 16 hours, then H. pylori one hour",significantly inhibited
same,cytoprotective effect (NF-kB inhibition) compared with rebamipide,[2]; revaprazan 25 uM vs rebamipide 50 uM,equal to or greater than rebamipide
same,expression of heat-shock proteins,[3],stimulating expression
